Results from patent publication US5770734A, “N-substituted-2-aminoquinolines useful for treating hypofunction of the cholinergic system” (American Home Products Corporation, priority 1992, dated 1998).
Counter-ions that a name gives are not always drawn. Like-named read-outs stand apart in the source and are kept apart here.

Columns and labels:
M1 muscarinic receptor = target: T1, M1 muscarinic receptor (Rattus norvegicus, UniProt P08482); experiment: M1 receptor binding ([^3 H]-pirenzepine); parameters: species or system rat (male Sprague-Dawley)
T1 sequence (P08482 1-460): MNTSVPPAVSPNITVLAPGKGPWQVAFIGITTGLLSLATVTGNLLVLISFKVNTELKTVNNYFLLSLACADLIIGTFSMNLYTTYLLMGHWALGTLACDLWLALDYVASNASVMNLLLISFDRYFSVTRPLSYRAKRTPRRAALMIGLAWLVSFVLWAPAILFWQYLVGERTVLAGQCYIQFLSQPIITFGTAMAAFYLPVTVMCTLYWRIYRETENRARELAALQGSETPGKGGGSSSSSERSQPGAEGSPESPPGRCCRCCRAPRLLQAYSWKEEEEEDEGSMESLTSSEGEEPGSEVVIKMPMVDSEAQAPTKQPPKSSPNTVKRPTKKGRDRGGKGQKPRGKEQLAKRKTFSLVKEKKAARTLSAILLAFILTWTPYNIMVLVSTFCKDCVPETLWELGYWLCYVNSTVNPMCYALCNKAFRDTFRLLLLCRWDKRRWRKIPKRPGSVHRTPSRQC
Experimental: Compounds are tested for their ability to affect M1 muscarinic binding through use of [^3 H]-pirenzepine ([^3 H]PZ) as a prototypic M1 receptor ligand. Male Sprague-Dawley (Charles River) rats are used. Dose selection is typically in the concentration range of 10^-9 to 10^-4 M. Test and reference compounds are dissolved and diluted in water or ethanol and are then added to the assay buffer. The appropriate vehicle is added to the assay buffer for control testing.
The rats (approximately 300 gm body weight) have free access to food and water and are housed in groups of four to six. On the test day, the rats are euthanized by decapitation and brain tissue is dissected and homogenized using a hand-held teflon-coated pestle, in 20 volumes of 0.32M sucrose (20 strokes at 4° C.). After centrifugation (747×g for 10 minutes at 4° C.), the resultant supernatant is decanted and recentrifuged (18677×g for 20 minutes at 4° C.). The resultant pellet is resuspended in the original volume of 0.32M sucrose and frozen. After thawing, the suspension is diluted (1:1 v/v) with 10 mM Na2 HPO4 /KH2 PO4 buffer (pH=7.4). [^3 H]PZ (0.5 nM, 0.04 μCi) is then incubated with a 100 μl sample of the tissue suspension in the above buffer (1 ml final volume, including a 10 μl sample of test compound or vehicle). […] After 60 minutes of incubation at 25° C. (in the dark), the binding is terminated by vacuum filtration onto Whatman GF/B filters (pre-soaked for 60 minutes in 0.1% (w/v) polyethylenimine to reduce non-specific binding). After three washes with the previously mentioned buffer (4° C., 3 ml/wash), the vacuum is allowed to run for two minutes before the filter-trapped radioactivity is assayed by liquid scintillation spectroscopy.
Data are presented as the percent inhibition ([control-test]/control×100%) or enhancement ([test-control]/control×100%) of [^3 H]PZ binding by the test or reference compound. The IC50 value (the drug concentration which causes a 50% inhibition of specific [^3 H]PZ binding) is calculated through the use of the EDOSE program (with probit transformation written by a person for use in STAT80). Increases in [^3 H]PZ are reported as percent increase (versus control) for a given test drug concentration.

M2 receptors [1] = target: T2, M2 receptors (Rattus norvegicus, UniProt P10980); experiment: biochemical; type: binding
T2 sequence (P10980 1-466): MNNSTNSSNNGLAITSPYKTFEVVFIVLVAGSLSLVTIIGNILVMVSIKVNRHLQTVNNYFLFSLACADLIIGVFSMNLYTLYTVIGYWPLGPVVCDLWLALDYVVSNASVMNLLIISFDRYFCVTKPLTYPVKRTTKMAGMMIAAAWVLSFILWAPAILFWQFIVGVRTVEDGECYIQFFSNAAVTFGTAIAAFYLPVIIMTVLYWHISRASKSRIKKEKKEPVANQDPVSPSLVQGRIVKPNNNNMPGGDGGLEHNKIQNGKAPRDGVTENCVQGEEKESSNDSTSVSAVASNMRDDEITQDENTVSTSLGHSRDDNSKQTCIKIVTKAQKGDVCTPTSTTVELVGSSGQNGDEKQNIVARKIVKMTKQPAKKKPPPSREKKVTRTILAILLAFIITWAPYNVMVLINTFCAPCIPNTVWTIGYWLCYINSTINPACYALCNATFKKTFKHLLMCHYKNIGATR

M2 receptors [2] = experiment: biochemical; type: binding; settings: Table 1; ratio of M2 IC50 to M1 IC50
[3] = tested on: scopolamine-induced hyperactivity, a proposed muscarinic M1 -mediated effect; experiment: Scopolamine-induced hyperactivity (locomotor activity); type: in vivo, rat; settings: for Total activity: N=10
Experimental: Compounds were evaluated for the ability to attenuate scopolamine-induced hyperactivity, a proposed muscarinic M1 -mediated effect. Animals were permitted to habituate for 30 minutes in locomotor activity chambers (Digiscan, Omnitech; Columbus, Ohio) in which infrared detectors were used to measure movement in 3 axes. The animals were then injected i.p. with vehicle alone, scopolamine alone (1.7 mg/kg) or both scopolamine and one dose of the test compound. Animals were then replaced in the chambers and locomotor activity was measured for an additional 1 hour period. Total activity measures (vertical+horizintal movements) were collected and statistically analyzed in four 15 minute periods.

[4] = Table 1, rat brain tissue, [^3 H]PZ 0.5 nM, read-out: ^3 H-Pirenzepine M1 IC50

| Molecule | IC50 (M1 muscarinic receptor; [4]) | M2/M1 (M2 receptors [2]) | IC50 (M2 receptors [1]; read-out: ^3 H-QNB M2 IC50) | also measured |
| --- | --- | --- | --- | --- |
| 3-[[[(3-chlorophenyl)amino]carbonyl]oxy]-N,N,N-trimethyl-1-propynaminium chloride [reference compound] | – | – | – | IC50 (M1 muscarinic receptor; typical results, reference drugs, read-out: IC50, [^3 H]PZ binding (M1)): 1.3 µM; IC50 (M2 receptors [1]; typical results, reference drugs, read-out: IC50, [^3 H]QNB binding (M2)): 42 µM |
| Cl.Cl.c1ccc2nc(NCCCN3CCOCC3)ccc2c1 [Example 2, N-[3-(4-Morpholinyl)propyl]-2-quinolinamine dihydrochloride] | 2.5 µM | 46 | 116 µM | – |
| Cc1cc(NCCCN2CCN(C)CC2)nc2ccccc12 [Example 3, 4-Methyl-N-[3-(4-methyl-1-piperazinyl)propyl]-2-quinolinamine (E)-2-butenedioate (1:2) hemihydrate] | 0.6 µM | 46 | 28 µM | – |
| Cc1cc(NCCCCN2CCOCC2)nc2ccccc12 [Example 4, 4-Methyl-N-[4-(4-morpholinyl)butyl]-2-quinolinamine (E)-2-butenedioate (1:1.15)] | 0.54 µM | 41 | 22 µM | – |
| Cc1cc(NCCN2CCOCC2)nc2ccccc12 [Example 5, 4-Methyl-N-[2-(4-morpholinyl)ethyl]-2-quinolinamine (E)-2-butenedioate (3:2) quarter hydrate] | 9.7 µM | 21 | 200 µM | – |
| Cc1cc(NCCCCN2CCN(C)CC2)nc2ccccc12 [Example 6, 4-Methyl-N-[4-(4-methyl-1-piperazinyl)butyl]-2-quinolinamine (E)-2-butenedioate (1:2) one and three quarter hydrate] | 0.37 µM | 15 | 5.5 µM | – |
| Cc1cc(NCCCN2CCCC2=O)nc2ccccc12 [Example 7, 4-Methyl-N-[3-(1-pyrrolidin-2-on)propyl]-2-quinolinamine hydrochloride three-quarter hydrate] | 1.3 µM | 15 | 20 µM | – |
| Cc1cc(NCCCN2CCCCC2)nc2ccccc12 [Example 8, 4-Methyl-N-[3-(1-piperidinyl)propyl]-2-quinolinamine (E)-2-butenedioate (1:1) hemihydrate] | 0.42 µM | 11 | 4.6 µM | – |
| CCc1cc(NCCCN2CCOCC2)nc2ccccc12 [Example 9, 4-Ethyl-N-[3-(4-morpholinyl)propyl]-2-quinolinamine dihydrochloride three quarter hydrate] | 2 µM | 22 | 44 µM | – |
| c1ccc2c(C3CCCCC3)cc(NCCCN3CCOCC3)nc2c1 [Example 10, 4-Cyclohexyl-N-[3-(4-morpholinyl)propyl]-2-quinolinamine dihydrochlorideone quarter hydrate] | 2.3 µM | 6 | 13 µM | – |
| CCN(CC)CCCNc1cc(C)c2ccccc2n1 [Example 11, N,N-Diethyl-N'-(4-methyl-2-quinolinyl)-1,3-propanediamine dihydrochloride hemihydrate] | 0.21 µM | 86 | 18 µM | – |
| Cc1cc(NCCN(C)C)nc2ccccc12.O=C(O)/C=C/C(=O)O [Example 12, N,N-Dimethyl-N'-(4-methyl-2-quinolinyl)-1,2-ethanediamine (E)-2-butenedioate (1:1)] | 1.32 µM | 27 | 35 µM | – |
| O=C1CCCN1CC#CCN1CCCC1 [Oxotremorine sesquifumarate, reference compound] | – | – | – | IC50 (M1 muscarinic receptor): 0.11 µM; IC50 (M2 receptors [1]): 1.3 µM |
| O=C1CCCN1CC#CCN1CCCC1 [Oxotremorine] | – | – | – | minimal effective dose ([3]; Rattus norvegicus, ip, read-out: minimum effective dose): 0.3 mg/kg; effect on scopolamine hyperactivity at lower doses ([3]; doses below 0.3 mg/kg): some effect of oxotremorine was seen at lower doses; Total activity ([3]; scopolamine + oxotremorine 0.03 mg/kg, 15 min): 3020; Total activity ([3]; scopolamine + oxotremorine 0.03 mg/kg, 30 min): 4083; Total activity ([3]; scopolamine + oxotremorine 0.03 mg/kg, 45 min): 3332; Total activity ([3]; scopolamine + oxotremorine 0.03 mg/kg, 60 min): 2265; Total activity ([3]; scopolamine + oxotremorine 0.1 mg/kg, 15 min): 5709; Total activity ([3]; scopolamine + oxotremorine 0.1 mg/kg, 30 min): 4305; Total activity ([3]; scopolamine + oxotremorine 0.1 mg/kg, 45 min): 3725; Total activity ([3]; scopolamine + oxotremorine 0.1 mg/kg, 60 min): 2571; Total activity ([3]; scopolamine + oxotremorine 0.3 mg/kg, 15 min): 2523; Total activity ([3]; scopolamine + oxotremorine 0.3 mg/kg, 30 min): 1819; Total activity ([3]; scopolamine + oxotremorine 0.3 mg/kg, 45 min): 2351; Total activity ([3]; scopolamine + oxotremorine 0.3 mg/kg, 60 min): 1573 |
